Measurements taken from PMC11396129, “Oxindole–benzothiazole hybrids as CDK2 inhibitors and anticancer agents: design, synthesis and biological evaluation” (BMC Chemistry, 2024).

What was measured:
Type in all cases: cell-based, human
[1] = test system: PC-3; assay: NCI 60 panel growth inhibition (SRB), prostate cancer; details: PC-3, 10 μM
Procedure: (§1) Screening of cytotoxic activity against a panel of sixty human tumor cell lines The selected compounds by NCI were evaluated for their anticancer activity in a two- stage process. […] Then, the output from the single dose screen is reported as a mean graph. […] Assay protocol. […] For a typical screening experiment, cells are inoculated into 96 well microtiter plates in 100 µL at plating densities ranging from 5000 to 40,000 cells/well depending on the doubling time of individual cell lines. […] After 24 h, two plates of each cell line are fixed in situ with TCA, to represent a measurement of the cell population for each cell line at the time of drug addition (Tz). The experimental drugs are solubilized in dimethyl sulfoxide at 400-fold the desired final maximum test concentration and stored frozen prior to use. At the time of drug addition, an aliquot of frozen concentrate is thawed and diluted to twice the desired final maximum test concentration with complete medium containing 50 µg/mL gentamicin. Additional four, 10-fold or ½ log serial dilutions are made to provide a total of five drug concentrations plus control. […] For adherent cells, the assay is terminated by the addition of cold TCA. […] The supernatant is discarded, and the plates are washed five times with tap water and air dried. […] Using the seven absorbance measurements [time zero, (Tz), control growth, (C), and test growth in the presence of drug at the five concentration levels (Ti)], the percentage growth is calculated at each of the drug concentrations levels. Percentage growth inhibition is calculated as: [(Ti Tz)/(C–Tz)] x 100 for concentrations for which Ti>/=Tz and [(Ti-Tz)/Tz] x 100 for concentrations for which Ti < Tz. Three dose response parameters are calculated for each experimental agent. […] The drug concentration resulting in total growth inhibition (TGI) is calculated from Ti = Tz. […] Values are calculated for each of these three parameters if the level of activity is reached; however, if the effect is not reached or is exceeded, the value for that parameter is expressed as greater or less than the maximum or minimum concentration tested.

[2] = test system: DU-145; assay: as above; details: DU-145, 10 μM
Procedure: as §1

[3] = test system: SN12C; assay: NCI 60 panel growth inhibition (SRB), renal cancer; details: 10 μM
Procedure: as §1

[4] = test system: TK-10; assay: NCI 60 panel growth inhibition (SRB), renal cancer; details: TK-10, 10 μM
Procedure: as §1

[5] = test system: ACHN; assay: NCI 60 panel growth inhibition (SRB), renal cancer; details: 10 μM
Procedure: as §1

[6] = test system: UO-31; assay: NCI 60 panel growth inhibition (SRB), renal cancer; details: UO-31, 10 μM
Procedure: as §1

[7] = test system: 786-0; assay: NCI 60 panel growth inhibition (SRB), renal cancer; details: 786-0, 10 μM
Procedure: as §1

[8] = test system: RXF 393; assay: NCI 60 panel growth inhibition (SRB), renal cancer; details: RXF 393, 10 μM
Procedure: as §1

[9] = test system: CAKI-1; assay: NCI 60 panel growth inhibition (SRB), renal cancer; details: CAKI-1, 10 μM
Procedure: as §1

[10] = test system: A498; assay: NCI 60 panel growth inhibition (SRB), renal cancer; details: A498, 10 μM
Procedure: as §1

[11] = test system: HL-60(TB); assay: NCI 60 panel growth inhibition (SRB), leukemia; details: HL-60(TB), 10 μM
Procedure: as §1

[12] = test system: K-562; assay: NCI 60 panel growth inhibition (SRB), leukemia; details: K-562, 10 μM
Procedure: as §1

[13] = test system: CCRF-CEM; assay: NCI 60 panel growth inhibition (SRB), leukemia; details: 10 μM
Procedure: as §1

[14] = test system: SR; assay: NCI 60 panel growth inhibition (SRB), leukemia; details: 10 μM
Procedure: as §1

[15] = test system: RPMI-8226; assay: NCI 60 panel growth inhibition (SRB), leukemia; details: RPMI-8226, 10 μM
Procedure: as §1

[16] = test system: MOLT-4; assay: NCI 60 panel growth inhibition (SRB), leukemia; details: MOLT-4, 10 μM
Procedure: as §1

[17] = test system: MDA-MB-435; assay: NCI 60 panel growth inhibition (SRB), melanoma; details: MDA-MB-435, 10 μM
Procedure: as §1

[18] = test system: UACC-257; assay: NCI 60 panel growth inhibition (SRB), melanoma; details: UACC-257, 10 μM
Procedure: as §1

[19] = test system: UACC-62; assay: NCI 60 panel growth inhibition (SRB), melanoma; details: UACC-62, 10 μM
Procedure: as §1

[20] = test system: SK-MEL-28; assay: NCI 60 panel growth inhibition (SRB), melanoma; details: SK-MEL-28, 10 μM
Procedure: as §1

[21] = test system: MALME-3M; assay: NCI 60 panel growth inhibition (SRB), melanoma; details: 10 μM
Procedure: as §1

[22] = test system: SK-MEL-5; assay: NCI 60 panel growth inhibition (SRB), melanoma; details: SK-MEL-5, 10 μM
Procedure: as §1

[23] = test system: M14; assay: NCI 60 panel growth inhibition (SRB), melanoma; details: M14, 10 μM
Procedure: as §1

[24] = test system: LOX IMVI; assay: NCI 60 panel growth inhibition (SRB), melanoma; details: 10 μM
Procedure: as §1

[25] = test system: HCT-15; assay: NCI 60 panel growth inhibition (SRB), colon cancer; details: HCT-15, 10 μM
Summary of the method: (§2)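 Percent growth per concentration, normalised to Tz and control wells, yields three dose-response parameters including TGI (Ti = Tz). Where activity is not reached or is exceeded, the value is reported as greater or less than the tested extreme.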

[26] = test system: COLO 205; assay: NCI 60 panel growth inhibition (SRB), colon cancer; details: COLO 205, 10 μM
Summary of the method: as §2

## COc1cccc(-c2nc3ccccc3s2)c1OCC(=O)NN=C1C(=O)Nc2ccc(C)cc21 [Compound 9h, 2-(2-(Benzo[d]thiazol-2-yl)-6-methoxyphenoxy)-N′-(5-methyl-2-oxoindolin-3-ylidene)acetohydrazide]
[1]
  GI%: 46.62%
[2]
  GI%: – (GI% < 5%)
[3]
  GI%: 9.88%
[4]
  GI%: – (GI% < 5%)
[5]
  GI%: 11.83%
[6]
  GI%: 38.34%
[7]
  GI%: 9.21%
[8]
  GI%: 25.38%
[9]
  GI%: 36.68%
[10]
  GI%: – (GI% < 5%)
[11]
  GI%: – (GI% < 5%)
[12]
  GI%: 26.17%
[13]
  GI%: 47.56%
[14]
  GI%: – (GI% < 5%)
[15]
  GI%: 54.14%
[16]
  GI%: 43.65%
[17]
  GI%: – (GI% < 5%)
[18]
  GI%: – (GI% < 5%)
[19]
  GI%: 34.75%
[20]
  GI%: – (GI% < 5%)
[21]
  GI%: 16.42%
[22]
  GI%: 62.94%
[23]
  GI%: 9.67%
[24]
  GI%: – (GI% < 5%)
[25]
  GI%: 5.56%
[26]
  GI%: 7.03%

## COc1ccc2c(c1)C(=NNC(=O)COc1c(OC)cccc1-c1nc3ccccc3s1)C(=O)N2 [Compound 9i, 2-(2-(Benzo[d]thiazol-2-yl)-6-methoxyphenoxy)-N′-(5-methoxy-2-oxoindolin-3-ylidene)acetohydrazide]
[1]
  GI%: 43.62%
[2]
  GI%: – (GI% < 5%)
[3]
  GI%: 14.66%
[4]
  GI%: – (GI% < 5%)
[5]
  GI%: 6.51%
[6]
  GI%: 30.29%
[7]
  GI%: 5.62%
[8]
  GI%: 15.41%
[9]
  GI%: 24.98%
[10]
  GI%: – (GI% < 5%)
[11]
  GI%: – (GI% < 5%)
[12]
  GI%: 21.95%
[13]
  GI%: 44.24%
[14]
  GI%: – (GI% < 5%)
[15]
  GI%: 47.68%
[16]
  GI%: 45.30%
[17]
  GI%: – (GI% < 5%)
[18]
  GI%: – (GI% < 5%)
[19]
  GI%: 25.33%
[20]
  GI%: – (GI% < 5%)
[21]
  GI%: 12.81%
[22]
  GI%: 51.82%
[23]
  GI%: 7.92%
[24]
  GI%: – (GI% < 5%)
[25]
  GI%: 9.87%
[26]
  GI%: – (GI% < 5%)

## COc1cccc(-c2nc3ccccc3s2)c1OCC(=O)NN=C1C(=O)Nc2ccc([N+](=O)[O-])cc21 [Compound 9j, 2-(2-(Benzo[d]thiazol-2-yl)-6-methoxyphenoxy)-N′-(5-nitro-2-oxoindolin-3-ylidene)acetohydrazide]
[1]
  GI%: 18.80%
[2]
  GI%: 6.78%
[3]
  GI%: 11.67%
[4]
  GI%: – (GI% < 5%)
[5]
  GI%: 11.44%
[6]
  GI%: 25.41%
[7]
  GI%: – (GI% < 5%)
[8]
  GI%: 9.05%
[9]
  GI%: 28.19%
[10]
  GI%: – (GI% < 5%)
[11]
  GI%: – (GI% < 5%)
[12]
  GI%: – (GI% < 5%)
[13]
  GI%: 34.81%
[14]
  GI%: – (GI% < 5%)
[15]
  GI%: 22.11%
[16]
  GI%: 9.01%
[17]
  GI%: 6.00%
[18]
  GI%: 5.08%
[19]
  GI%: 11.06%
[20]
  GI%: – (GI% < 5%)
[21]
  GI%: 12.74%
[22]
  GI%: 24.59%
[23]
  GI%: 8.57%
[24]
  GI%: – (GI% < 5%)
[25]
  GI%: 5.47%
[26]
  GI%: – (GI% < 5%)
